“Also recorded” adds a separate entry of the source.
Test system: APAP-induced liver injury in mice
Assay: Delayed treatment 6 h post-APAP, comparison with NAC
Type: in vivo, mouse
Details: read at 24 h, FIG. 5D
Description: To compare the 18-mer's effectiveness to N-acetyl cysteine (NAC), 300 mg kg^−1 NAC at pH 7.5 in sterile saline was injected intraperitoneal 30 min post-APAP. In a separate experiment, 300 mg kg^−1 NAC or 0.34 mg/kg 18-mer were administered 6 h post-APAP, then at 18 h post-APAP, 0.17 mg kg^−1 18-mer was administered to the 18-mer treated group. At 24 h post-APAP, mice were euthanized and blood and liver tissue were collected.
Plasma ALT was measured using the ALT Infinity reagent (Thermo Fisher Scientific) following the manufacturer's instructions. Plasma TNF-α was measured using Mouse TNF-α DuoSet Kit (R&D Systems, Minneapolis, Minnesota, United States of America) according to the manufacturer's instructions. Plasma HMGB1 levels were determined using HMGB1 ELISA Kit (Tecan US of Tecan Trading AG, Mannedorf, Switzerland) according to the manufacturer's instructions. Plasma syndecan-1 levels were determined using Mouse Syndecan-1 ELISA (CellSciences) according to manufacturer's instructions. Hepatic GSH levels were determined using Glutathione Assay Kit (Cayman Chemicals, Ann Arbor, Michigan, United States of America) according to the manufacturer's instructions.

CC(=O)N[C@@H](CS)C(=O)O [NAC, N-acetyl-cysteine]
protective effect (ALT) when administered six hours post-APAP: loses its protective effect; also recorded: loses effectiveness

Reference: patent US12397016B2, “Sulfated oligosaccharides having anti-inflammatory activity” (The University of North Carolina at Chapel Hill, priority 2017, dated 2025)
